# Assay results: US20230131402A1, “SPIRO-LACTAM NMDA RECEPTOR MODULATORS AND USES THEREOF” (Aptinyx Inc., priority 2016, published 2023)
# Where two headings read alike, the source gives them in different places.
# Experiments:
# [1] = IV pharmacokinetics; assay type: in vivo, Sprague Dawley rats; details: rat, 2 mg/kg, normal saline (compounds marked * in 1% NMP and 99% normal saline)
# Description: The table below summarizes the results of the IV pharmacokinetics.
# [2] = biological target: T1, NMDAR2D (Homo sapiens, UniProt O15399); assay: [3H]MK-801 binding, NMDAR2D expressing HEK cell membranes; assay type: biochemical; details: 50 μM glutamate
# T1 construct: expressed in transfected cells; host or cells: HEK cells (membrane extract)
# Description: (§1) Assays were conducted as described by Moskal et al., “GLYX-13: a monoclonal antibody-derived peptide that acts as an N-methyl-D-aspartate receptor modulator,” Neuropharmacology, 49, 1077-87, 2005. These studies were designed to determine if the test compounds act to facilitate NMDAR activation in NMDAR2A, NMDAR2B, NMDAR2C or NMDAR2D expressing HEK cell membranes as measured by increases in [^3H]MK-801 binding.
# (§2) In the assay, 300 μg of NMDAR expressing HEK cell membrane extract protein was preincubated for 15 minutes at 25° C. in the presence of saturating concentrations of glutamate (50 μM) and varying concentrations of test compound (1×10^−15M−1×10^−7M), or 1 mM glycine. Following the addition of 0.3 μCi of [^3H]MK-801 (22.5 Ci/mmol), reactions were again incubated for 15 minutes at 25° C. (nonequilibrium conditions). Bound and free [^3H]MK-801 were separated via rapid filtration using a Brandel apparatus.
# (§3) In analyzing the data, the DPM (disintegrations per minute) of [^3H]MK-801 remaining on the filter were measured for each concentration of test compound or for 1 mM glycine. The DPM values for each concentration of a ligand (N=2) were averaged. The baseline value was determined from the best fit curve of the DPM values modeled using the GraphPad program and the log(agonist) vs. response(three parameters) algorithm was then subtracted from all points in the dataset. The % maximal [^3H]MK-801 binding was then calculated relative to that of 1 mM glycine: all baseline subtracted DPM values were divided by the average value for 1 mM glycine. The EC50 and % maximal activity were then obtained from the best fit curve of the % maximal [^3H]MK-801 binding data modelled using the GraphPad program and the log(agonist) vs. response(three parameters) algorithm.
# (§4) The tables below summarize the results for the wild type NMDAR agonists NMDAR2A, NMDAR2B, NMDAR2C, and NMDAR2D, and whether the compound is not an agonist (−), is an agonist (+), or is a strong agonist (++), where column A is based on the % maximal [^3H]MK-801 binding relative to 1 mM glycine (−=0; <100%=+; and >100%=++); and column B is based on log EC50 values (0=−; ≥1×10^−9M (e.g., −8)=+; and <1×10^−9M (e.g., −10)=++).
# [3] = test system: positive (hedonic) 50-kHz ultrasonic vocalizations (USVs); assay: Positive emotional learning (PEL) test; assay type: in vivo, rats; details: rat, PO, dose .001-1 mg/kg, 1 h after administration
# Description: Experiments were conducted as described in Burgdorf et al., “The effect of selective breeding for differential rates of 50-kHz ultrasonic vocalizations on emotional behavior in rats,” Devel. Psychobiol., 51:34-46 (2009). Rat 50-kHz ultrasonic vocalization (hedonic USVs) is a validated model for the study of positive affective state and is best elicited by rough-and-tumble play.
# The PEL assay measures the acquisition of positive (hedonic) 50-kHz ultrasonic vocalizations (USVs) to a social stimulus, heterospecific rough and tumble play stimulation. Heterospecific rough-and-tumble play stimulation was administered by the experimenter's right hand. One hour after administration of test compound or vehicle negative control (0.5% sodium carboxymethyl cellulose in 0.9% sterile saline vehicle), animals received 3 min of heterospecific rough-and-tumble play that consisted of alternating 15 sec blocks of heterospecific play and 15 sec of no-stimulation. High frequency ultrasonic vocalizations (USVs) were recorded and analyzed by sonogram with Avasoft SASlab Pro (Germany) as previously described by Burgdorf et al., “Positive emotional learning is regulated in the medial prefrontal cortex by GluN2B-containing NMDA receptors,” Neuroscience, 192:515-523 (2011). Frequency modulated 50-kHz US V s that occurred during each of the no-stimulation periods were quantified to measure PEL. Animals were not habituated to play stimulation before testing. Positive emotional learning was measured during the conditioned stimulus (CS) trials preceding the tickle unconditioned stimulus (UCS) trials. Animals received 15 second trials consisting of 6 CS and 6 UCS trials each (3 min total).
# The table below summarizes the findings. As each experiment includes its own vehicle group, an example (typical) vehicle score is shown. Max effect (mean number of 50 kHz USVs per 15 seconds) is reported as ∧: <6.0; *: 6.0-7.6; **: 7.7-10; ***: 10.1-20.
# [4] = biological target: T2, NMDAR2B (Homo sapiens, UniProt Q13224); assay: [3H]MK-801 binding, NMDAR2B expressing HEK cell membranes; assay type: biochemical; details: 50 μM glutamate
# T2 construct: expressed in transfected cells; host or cells: HEK cells (membrane extract)
# Method in brief: (§5)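 HEK membranes expressing NMDAR2A, 2B, 2C or 2D (300 μg protein) were preincubated 15 min at 25 °C with 50 μM glutamate and compound (1×10^−15–1×10^−7 M), then 15 min with 0.3 μCi [3H]MK-801 (nonequilibrium) before filtration. Baseline-subtracted binding was normalized to 1 mM glycine, yielding EC50 and % maximal activity.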
# [5] = Oral pharmacokinetics (plasma, brain, CSF); details: rat, per os, 10 mg/kg
# Description: (§6) Plasma, brain, and CSF samples were analyzed at various time points over a 24 hour period.
# [6] = biological target: T3, NMDAR2A (Homo sapiens, UniProt Q12879); assay: [3H]MK-801 binding, NMDAR2A expressing HEK cell membranes; assay type: biochemical; details: 50 μM glutamate
# T3 construct: expressed in transfected cells; host or cells: HEK cells (membrane extract)
# Method in brief: as §5
# [7] = biological target: T4, NMDAR2C (Homo sapiens, UniProt Q14957); assay: [3H]MK-801 binding, NMDAR2C expressing HEK cell membranes; assay type: biochemical; details: 50 μM glutamate
# T4 construct: expressed in transfected cells; host or cells: HEK cells (membrane extract)
# Description: as §1, §2, §3, §4
# [8] = Sprague Dawley, rat, in vivo, po, 10 mg/kg
# Description: as §6
# [9] = in vivo; details: Sprague Dawley, rat, po, 10 mg/kg
# Description: as §6
# [10] = normal saline (compounds marked * in 1% NMP and 99% normal saline)
# T2 sequence (Q13224 27-1484, species assumed, other chains not shown): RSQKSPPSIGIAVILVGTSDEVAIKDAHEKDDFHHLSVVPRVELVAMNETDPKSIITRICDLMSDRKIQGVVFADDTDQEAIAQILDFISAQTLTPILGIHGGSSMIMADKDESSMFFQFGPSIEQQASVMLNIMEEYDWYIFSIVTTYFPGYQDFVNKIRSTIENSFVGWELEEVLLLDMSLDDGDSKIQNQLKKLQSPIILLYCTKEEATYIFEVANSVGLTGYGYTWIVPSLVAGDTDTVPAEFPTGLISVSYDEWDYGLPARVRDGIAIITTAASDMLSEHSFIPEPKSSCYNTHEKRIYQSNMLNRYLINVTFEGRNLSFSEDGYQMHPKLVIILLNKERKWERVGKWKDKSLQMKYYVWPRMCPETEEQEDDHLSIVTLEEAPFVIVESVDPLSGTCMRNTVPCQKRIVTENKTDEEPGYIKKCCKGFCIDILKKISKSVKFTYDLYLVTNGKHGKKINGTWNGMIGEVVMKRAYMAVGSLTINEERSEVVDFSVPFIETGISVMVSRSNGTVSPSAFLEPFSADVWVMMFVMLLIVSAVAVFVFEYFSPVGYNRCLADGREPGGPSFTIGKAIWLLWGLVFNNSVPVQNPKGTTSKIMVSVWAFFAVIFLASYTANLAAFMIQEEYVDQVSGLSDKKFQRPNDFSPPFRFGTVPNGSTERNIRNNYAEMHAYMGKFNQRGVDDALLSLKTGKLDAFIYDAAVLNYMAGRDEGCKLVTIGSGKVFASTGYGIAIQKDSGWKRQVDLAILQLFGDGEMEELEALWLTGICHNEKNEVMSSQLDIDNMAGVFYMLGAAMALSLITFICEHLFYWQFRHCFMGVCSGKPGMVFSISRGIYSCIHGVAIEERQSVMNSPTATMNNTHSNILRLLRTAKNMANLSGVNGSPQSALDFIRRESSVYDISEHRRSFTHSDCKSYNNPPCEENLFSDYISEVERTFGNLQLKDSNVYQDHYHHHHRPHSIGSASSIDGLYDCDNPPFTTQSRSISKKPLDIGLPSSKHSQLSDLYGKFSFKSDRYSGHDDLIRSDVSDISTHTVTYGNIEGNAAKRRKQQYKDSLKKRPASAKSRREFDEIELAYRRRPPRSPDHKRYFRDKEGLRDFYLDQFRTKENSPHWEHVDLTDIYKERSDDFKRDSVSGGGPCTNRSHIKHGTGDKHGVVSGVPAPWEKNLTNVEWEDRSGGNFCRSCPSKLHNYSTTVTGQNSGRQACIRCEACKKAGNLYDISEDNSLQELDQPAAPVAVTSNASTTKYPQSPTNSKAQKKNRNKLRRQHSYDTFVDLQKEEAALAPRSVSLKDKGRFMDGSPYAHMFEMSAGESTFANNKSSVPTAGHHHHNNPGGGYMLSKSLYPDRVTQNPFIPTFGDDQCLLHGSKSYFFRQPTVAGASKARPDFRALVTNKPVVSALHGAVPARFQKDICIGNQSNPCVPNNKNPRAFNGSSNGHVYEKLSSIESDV
# T3 sequence (Q12879 23-1464, species assumed, other chains not shown): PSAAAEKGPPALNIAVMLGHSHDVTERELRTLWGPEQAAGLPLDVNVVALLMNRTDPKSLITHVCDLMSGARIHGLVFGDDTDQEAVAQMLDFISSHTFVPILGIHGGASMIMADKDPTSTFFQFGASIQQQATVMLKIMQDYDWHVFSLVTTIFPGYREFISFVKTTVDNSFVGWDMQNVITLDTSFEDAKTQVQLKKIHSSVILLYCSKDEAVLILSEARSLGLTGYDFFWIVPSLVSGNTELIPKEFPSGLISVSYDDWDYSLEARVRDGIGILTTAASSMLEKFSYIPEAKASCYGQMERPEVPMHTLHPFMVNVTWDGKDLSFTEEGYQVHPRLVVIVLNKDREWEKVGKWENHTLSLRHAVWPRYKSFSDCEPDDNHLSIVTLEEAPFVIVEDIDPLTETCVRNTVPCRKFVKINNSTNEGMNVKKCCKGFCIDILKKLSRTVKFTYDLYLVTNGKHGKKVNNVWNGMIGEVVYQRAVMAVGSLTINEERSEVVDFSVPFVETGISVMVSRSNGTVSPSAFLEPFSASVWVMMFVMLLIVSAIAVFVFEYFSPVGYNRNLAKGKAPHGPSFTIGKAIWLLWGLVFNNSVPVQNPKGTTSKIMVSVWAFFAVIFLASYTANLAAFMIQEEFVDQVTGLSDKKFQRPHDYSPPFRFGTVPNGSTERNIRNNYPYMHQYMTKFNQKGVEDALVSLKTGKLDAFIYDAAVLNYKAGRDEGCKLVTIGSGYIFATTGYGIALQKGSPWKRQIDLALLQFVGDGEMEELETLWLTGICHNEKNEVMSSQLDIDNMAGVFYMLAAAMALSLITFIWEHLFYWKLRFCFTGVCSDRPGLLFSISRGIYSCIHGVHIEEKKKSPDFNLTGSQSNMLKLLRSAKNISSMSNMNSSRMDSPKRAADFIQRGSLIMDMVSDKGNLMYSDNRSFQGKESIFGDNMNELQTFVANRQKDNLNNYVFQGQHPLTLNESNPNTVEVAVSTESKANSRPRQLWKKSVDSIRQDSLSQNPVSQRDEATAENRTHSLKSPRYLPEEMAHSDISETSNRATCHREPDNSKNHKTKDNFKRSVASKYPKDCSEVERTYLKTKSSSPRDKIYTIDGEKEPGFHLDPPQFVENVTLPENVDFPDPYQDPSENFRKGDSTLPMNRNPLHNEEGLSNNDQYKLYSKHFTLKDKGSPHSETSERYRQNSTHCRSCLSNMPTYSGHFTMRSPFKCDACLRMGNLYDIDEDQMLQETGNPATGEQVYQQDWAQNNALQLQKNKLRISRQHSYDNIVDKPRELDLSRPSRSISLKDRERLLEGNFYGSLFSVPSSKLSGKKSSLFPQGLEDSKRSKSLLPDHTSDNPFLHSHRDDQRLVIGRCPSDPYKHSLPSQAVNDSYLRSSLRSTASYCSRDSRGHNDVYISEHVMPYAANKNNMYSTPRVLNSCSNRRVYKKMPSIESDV
# T4 sequence (Q14957 20-1233, species assumed, other chains not shown): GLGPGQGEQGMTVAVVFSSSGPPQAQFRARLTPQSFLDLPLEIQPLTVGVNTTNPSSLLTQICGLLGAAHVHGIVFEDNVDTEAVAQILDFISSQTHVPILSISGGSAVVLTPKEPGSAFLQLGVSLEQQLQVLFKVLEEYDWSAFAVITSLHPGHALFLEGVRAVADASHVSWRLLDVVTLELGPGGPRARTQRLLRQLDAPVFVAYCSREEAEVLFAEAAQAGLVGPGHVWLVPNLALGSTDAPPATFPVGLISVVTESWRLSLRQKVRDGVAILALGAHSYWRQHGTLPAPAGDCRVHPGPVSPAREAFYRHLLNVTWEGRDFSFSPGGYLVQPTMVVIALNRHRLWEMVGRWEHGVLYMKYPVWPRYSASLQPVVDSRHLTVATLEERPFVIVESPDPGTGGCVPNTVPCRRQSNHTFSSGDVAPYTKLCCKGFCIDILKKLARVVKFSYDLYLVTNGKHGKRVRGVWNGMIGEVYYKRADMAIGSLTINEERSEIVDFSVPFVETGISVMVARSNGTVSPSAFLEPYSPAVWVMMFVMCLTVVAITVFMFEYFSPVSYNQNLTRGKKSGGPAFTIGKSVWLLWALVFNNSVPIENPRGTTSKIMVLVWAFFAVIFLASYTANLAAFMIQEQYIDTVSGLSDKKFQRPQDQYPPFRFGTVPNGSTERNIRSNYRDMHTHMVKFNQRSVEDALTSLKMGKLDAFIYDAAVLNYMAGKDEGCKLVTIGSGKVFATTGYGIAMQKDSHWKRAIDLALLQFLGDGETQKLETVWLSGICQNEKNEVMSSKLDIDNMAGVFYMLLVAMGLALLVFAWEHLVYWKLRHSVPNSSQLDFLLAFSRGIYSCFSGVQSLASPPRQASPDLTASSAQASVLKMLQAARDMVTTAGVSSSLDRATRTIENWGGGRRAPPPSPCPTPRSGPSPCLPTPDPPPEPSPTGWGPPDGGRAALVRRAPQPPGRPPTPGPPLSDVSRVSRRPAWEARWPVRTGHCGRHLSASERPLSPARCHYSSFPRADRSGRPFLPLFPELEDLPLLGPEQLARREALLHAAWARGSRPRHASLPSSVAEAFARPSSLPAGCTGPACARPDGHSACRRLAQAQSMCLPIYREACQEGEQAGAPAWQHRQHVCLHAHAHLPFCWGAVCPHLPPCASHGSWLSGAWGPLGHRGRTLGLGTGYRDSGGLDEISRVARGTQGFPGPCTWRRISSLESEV
smiles,measurement,setting,value
"CN1CCN(Cc2ccccc2)C2(CNC2=O)C1 (single isomer, unassigned) [EG-1, 5-Benzyl-8-Methyl-2,5,8-Triazaspiro[3.5]Nonan-1-One]",AUClast,[1],622.05 ng·h/mL
same,C0,[1],2010.43 ng/mL
same,Cl,[1],53.51 mL/min/kg
same,T1/2,[1],0.43 h
same,Vss,[1],0.96 L/kg
same,NMDAR2D A: % maximal [3H]MK-801 binding relative to 1 mM glycine,[2],− (−=0)
same,Max Effect (mean number of 50 kHz USVs per 15 seconds),[3],*** (***: 10.1-20)
same,NMDAR2B A: % maximal [3H]MK-801 binding relative to 1 mM glycine,[4],+ (<100%=+)
same,EC50,[4]; read-out: NMDAR2B B: log EC50 (converted),< 1 nM
same,% F,[5],14%
same,CSF Cmax,[5]; CSF,367.18 ng/mL
same,Brain Cmax,[5]; brain,334.3 ng/mL
same,AUClast,[5]; [10],428.79 ng·h/mL
same,Tmax,[5]; [10],0.25 h
same,Cmax,"[5]; plasma, normal saline (compounds marked * in 1% NMP and 99% normal saline)",700.4 ng/mL
same,NMDAR2A A: % maximal [3H]MK-801 binding relative to 1 mM glycine,[6],+ (<100%=+)
same,EC50,[6]; read-out: NMDAR2A B: log EC50 (converted),< 1 nM
same,NMDAR2C A: % maximal [3H]MK-801 binding relative to 1 mM glycine,[7],++ (>100%=++)
same,EC50,[7]; read-out: NMDAR2C B: log EC50 (converted),> 1 nM
"C[C@@H](O)[C@H](N)C(=O)N1CCN(C)CC12CNC2=O (single isomer, unassigned) [EJ-1, 5-(L-Threonyl)-8-Methyl-2,5,8-Triazaspiro[3.5]Nonan-1-One]",% F,[8],4%
same,AUC(0-t),"[1]; Sprague Dawley, in vivo, iv",3160 ng·h/mL
same,clearance,"[1]; Sprague Dawley, in vivo, iv",10.5 mL/min/kg
same,half-life,"[1]; Sprague Dawley, in vivo, iv",1.3 h
same,C0,"[1]; Sprague Dawley, in vivo, iv, read-out: C0",4030 ng/mL
same,Vss,[1],0.62 L/kg
same,AUC(0-t),[9]; AUClast,568 ng·h/mL
same,Cmax,[9]; Cmax,186 ng/mL
same,Tmax,[9]; Tmax,0.75 h
"C[C@@H](O)[C@H](N)C(=O)N1CCN(C)CC12CNC2=O (single isomer, unassigned) [EJ-2, 5-(L-Threonyl)-8-Methyl-2,5,8-Triazaspiro[3.5]Nonan-1-One]",% F,[8],9%
same,AUClast,[8],811.97 ng·h/mL
same,Cmax,[8],201.12 ng/mL
same,Tmax,[8],1.33 h
same,AUClast,[1],1737 ng·h/mL
same,C0,[1],3415.56 ng/mL
same,Cl,[1],18.95 mL/min/kg
same,T1/2,[1],1.59 h
same,Vss,[1],1.35 L/kg
